Data as given in ChEMBL document CHEMBL1153531, “1- or 3-(3-Amino-2-hydroxy-1-phenyl propyl)-1,3-dihydro-2H-benzimidazol-2-ones: potent, selective, and orally efficacious norepinephrine reuptake inhibitors” (J Med Chem, 2009).
The source made the active and inactive calls. No cut-off for these calls is given here.

Tests used:
Rattus norvegicus [1] = test: Effect on temperature homeostasis in telemetric ovariectomy-induced thermoregulatory dysfunction Sprague-Dawley rat model assessed as duration of tail skin temperature reduction at 3 mg/kg, po; assay type: functional
Rattus norvegicus [2] = test: Effect on temperature homeostasis in telemetric ovariectomy-induced thermoregulatory dysfunction Sprague-Dawley rat model assessed as mean reduction in tail skin temperature at 3 mg/kg, po relative to baseline; assay type: functional
[3] = target: Sodium-dependent serotonin transporter (Homo sapiens) (UniProt P31645); test: Inhibition of [3H]hydroxytryptamine creatinine sulfate uptake at human SERT expressed in human JAR cells at 1 uM; assay type: cell-based
Sodium-dependent serotonin transporter (Homo sapiens), sequence (P31645 whole entry, looked up): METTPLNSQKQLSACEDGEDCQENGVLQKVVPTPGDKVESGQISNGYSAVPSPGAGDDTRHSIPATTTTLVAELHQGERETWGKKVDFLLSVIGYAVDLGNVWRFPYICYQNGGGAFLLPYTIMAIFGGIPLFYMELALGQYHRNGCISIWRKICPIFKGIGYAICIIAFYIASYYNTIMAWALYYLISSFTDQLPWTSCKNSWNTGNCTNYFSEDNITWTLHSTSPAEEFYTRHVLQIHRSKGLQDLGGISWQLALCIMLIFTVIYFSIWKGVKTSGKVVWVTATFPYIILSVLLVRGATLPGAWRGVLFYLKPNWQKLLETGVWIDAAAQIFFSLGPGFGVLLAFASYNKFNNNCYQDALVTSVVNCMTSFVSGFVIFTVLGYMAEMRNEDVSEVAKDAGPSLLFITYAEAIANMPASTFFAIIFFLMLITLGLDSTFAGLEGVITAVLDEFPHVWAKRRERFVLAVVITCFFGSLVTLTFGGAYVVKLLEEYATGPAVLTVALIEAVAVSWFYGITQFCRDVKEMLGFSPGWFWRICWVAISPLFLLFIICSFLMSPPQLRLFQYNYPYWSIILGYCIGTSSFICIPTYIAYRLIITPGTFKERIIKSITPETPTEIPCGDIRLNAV

Homo sapiens = species on record: Homo sapiens; test: Selectivity […] human SERT to IC50 for human NET
[4] = target: T1, Sodium-dependent noradrenaline transporter (Homo sapiens, UniProt P23975)
T1 sequence (P23975 whole entry): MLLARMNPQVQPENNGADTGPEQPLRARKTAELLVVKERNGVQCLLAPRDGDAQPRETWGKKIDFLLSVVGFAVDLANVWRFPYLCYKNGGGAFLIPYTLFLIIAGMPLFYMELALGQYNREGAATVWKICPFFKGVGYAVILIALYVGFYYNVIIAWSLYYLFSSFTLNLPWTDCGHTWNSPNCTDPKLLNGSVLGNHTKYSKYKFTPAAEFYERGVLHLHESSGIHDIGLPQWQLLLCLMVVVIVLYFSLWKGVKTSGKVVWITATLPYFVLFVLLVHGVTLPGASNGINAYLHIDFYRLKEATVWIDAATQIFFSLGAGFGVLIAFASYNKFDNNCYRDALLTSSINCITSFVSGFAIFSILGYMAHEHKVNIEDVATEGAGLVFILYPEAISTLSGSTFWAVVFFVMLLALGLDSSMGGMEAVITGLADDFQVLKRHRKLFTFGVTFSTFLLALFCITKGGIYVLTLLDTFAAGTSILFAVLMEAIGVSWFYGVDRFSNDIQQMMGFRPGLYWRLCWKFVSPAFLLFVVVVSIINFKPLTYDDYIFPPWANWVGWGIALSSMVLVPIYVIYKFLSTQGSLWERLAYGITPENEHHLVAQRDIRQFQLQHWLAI

Rattus norvegicus [5] = test: Effect on temperature homeostasis in telemetric ovariectomy-induced thermoregulatory dysfunction Sprague-Dawley rat model assessed as maximum reduction in tail skin temperature at 3 mg/kg, po relative to baseline; assay type: functional
[6] = target: Sodium-dependent serotonin transporter (Homo sapiens) (UniProt P31645); details: JAR
CHO = test: Selectivity for human NET expressed in MDCK-Net6 cells over human DAT expressed in CHO cells; assay type: cell-based
[7] = target: Sodium-dependent dopamine transporter (Homo sapiens) (UniProt Q01959); test: Inhibition of [3H]WIN-35428 binding to human recombinant DAT expressed in CHO cells at 10 uM by scintillation counting; assay type: cell-based
Sodium-dependent dopamine transporter (Homo sapiens), sequence (Q01959 whole entry): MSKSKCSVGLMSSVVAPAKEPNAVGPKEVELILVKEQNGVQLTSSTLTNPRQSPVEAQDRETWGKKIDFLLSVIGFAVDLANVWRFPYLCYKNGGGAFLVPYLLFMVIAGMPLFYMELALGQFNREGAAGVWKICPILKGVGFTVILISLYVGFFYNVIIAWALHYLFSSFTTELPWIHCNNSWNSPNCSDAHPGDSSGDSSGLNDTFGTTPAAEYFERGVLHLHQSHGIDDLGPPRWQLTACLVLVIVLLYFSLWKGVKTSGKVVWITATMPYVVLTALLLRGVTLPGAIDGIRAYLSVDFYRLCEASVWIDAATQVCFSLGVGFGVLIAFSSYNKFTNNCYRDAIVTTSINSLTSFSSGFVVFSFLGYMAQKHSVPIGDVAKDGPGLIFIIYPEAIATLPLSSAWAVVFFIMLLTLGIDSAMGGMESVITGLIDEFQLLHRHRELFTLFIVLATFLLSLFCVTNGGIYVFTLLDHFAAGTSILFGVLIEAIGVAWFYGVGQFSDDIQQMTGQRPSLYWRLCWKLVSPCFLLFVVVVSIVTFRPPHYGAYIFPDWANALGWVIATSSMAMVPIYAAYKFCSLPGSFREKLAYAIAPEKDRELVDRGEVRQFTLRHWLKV

JAR = test: Selectivity for human NET expressed in MDCK-Net6 cells over human SERT expressed in human JAR cells; assay type: cell-based
[8] = target: Sodium-dependent dopamine transporter (Homo sapiens) (UniProt Q01959); test: Inhibition of [3H]WIN-35428 binding to human recombinant DAT expressed in CHO cells by scintillation counting; assay type: cell-based
[9] = target: Sodium-dependent dopamine transporter (Homo sapiens) (UniProt Q01959); test: Inhibition of [3H]WIN-35428 binding to human recombinant DAT expressed in CHO cells at 1 uM by scintillation counting; assay type: cell-based
[10] = target: T1, Sodium-dependent noradrenaline transporter; test: biochemical
[11] = Terminal half life in Sprague-Dawley rat at 10 mg/kg, po; assay type: ADME, organism-based; design: dose 10 mg/kg, route oral; details: in vivo, read-out: beta t1/2 (converted)
[12] = Tmax in Sprague-Dawley rat at 10 mg/kg, po; assay type: ADME, organism-based; design: dose 10 mg/kg, route oral; details: in vivo
[13] = AUC (0 to infinity) in Sprague-Dawley rat at 10 mg/kg, po; assay type: ADME, organism-based; design: time infinity, dose 10 mg/kg, route oral; details: plasma
[14] = Terminal half life in Sprague-Dawley rat at 5 mg/kg, iv; assay type: ADME, organism-based; design: dose 5 mg/kg, route intravenous; details: in vivo, read-out: beta t1/2 (converted)
[15] = AUC (0 to infinity) in Sprague-Dawley rat at 5 mg/kg, iv; assay type: ADME, organism-based; design: time infinity, dose 5 mg/kg, route intravenous; details: plasma
[16] = Cmax in Sprague-Dawley rat 10 mg/kg, po within 2 hrs; assay type: ADME, organism-based; design: dose 10 mg/kg, route oral; details: in vivo
[17] = Oral bioavailability in Sprague-Dawley rat at 10 mg/kg; assay type: ADME, organism-based; details: in vivo
[18] = Plasma clearance in Sprague-Dawley rat at 5 mg/kg, iv; assay type: ADME, organism-based; design: dose 5 mg/kg, route intravenous
Rattus norvegicus [19] = test: Analgesic activity in Sprague-Dawley rat acute analgesia model assessed as increase in nocifensive latency at 10 mg/kg, po after 3 hrs by hot plate assay; assay type: functional, organism-based; design: dose 10 mg/kg
Rattus norvegicus [20] = test: Antihyperalgesic in po dosed Sprague-Dawley rat spinal nerve ligation model of neuropathic pain assessed as complete hind paw withdrawal after 3 to 4 weeks post surgery by paw pressure technique analysis; assay type: functional, organism-based
Rattus norvegicus [21] = test: Analgesic activity in Sprague-Dawley rat acute analgesia model assessed as increase nocifensive latency at 10 mg/kg, po after 1 hr by hot plate assay; assay type: functional, organism-based; design: dose 10 mg/kg
Rattus norvegicus [22] = test: Analgesic activity in Sprague-Dawley rat acute analgesia model assessed as increase in nocifensive latency at 10 mg/kg, po after 5 hrs by hot plate assay; assay type: functional, organism-based; design: dose 10 mg/kg

Row | SMILES | inhibition [3] [%] | IC50 [4] [nM] | IC5 [6] [µM] | inhibition [7] [%] | IC50 [10] [nM] | other results
1 | CNC[C@@H](O)[C@H](c1ccccc1)n1c(=O)n(C(C)C)c2cccc(F)c21 | 6 | 7.8 | > 10 | 12 | – | Time (Rattus norvegicus [1]): 1 h; Activity (Rattus norvegicus [2]): 1.61 °C; Selectivity ratio (Homo sapiens): > 900; Activity (Rattus norvegicus [5]): 2.09 °C; Selectivity ratio (CHO): > 500; Selectivity ratio (JAR): > 500
2 | CCn1c(=O)n([C@@H](c2ccccc2)[C@H](O)CNC)c2cc(F)ccc21 | 32 | 36.7 | – | 30 | – | –
3 | CCOc1ccccc1O[C@@H](c1ccccc1)[C@@H]1CNCCO1 | – | – | – | – | – | IC5 [8]: > 10000 nM
4 | CNC[C@@H](O)[C@H](c1cccc(F)c1)n1c(=O)n(-c2ccccc2)c2cccc(F)c21 | – | 91.9 | – | – | – | inhibition [9]: 11%
5 | CCCn1c(=O)n([C@@H](c2ccccc2)[C@H](O)CNC)c2ccccc21 | 15 | 18.6 | – | 6 | – | –
6 | CCNC[C@@H](O)[C@H](c1ccccc1)n1c(=O)n(C(C)C)c2ccc(F)cc21 | – | > 1000 | – | – | – | –
7 | CNC[C@@H](O)[C@H](c1ccccc1)n1c(=O)n(C2CCC2)c2ccccc21 | 5 | 42.5 | – | 6 | 90 | –
8 | CNC[C@@H](O)[C@H](c1cccc(F)c1)n1c(=O)n(C(C)C)c2cccc(F)c21 | 19 | 6.9 | 6.32 | 27 | 4.1 | Time (Rattus norvegicus [1]): 6 h; Activity (Rattus norvegicus [2]): 2.44 °C; half-life [11]: 3.9 h; Tmax [12]: 0.5 h; AUC(0-inf) [13]: 7080 ng·h/mL; half-life [14]: 2.3 h; Selectivity ratio (Homo sapiens): > 900; AUC(0-inf) [15]: 3650 ng·h/mL; IC5 [8]: 6320 nM; Cmax [16]: 1120 ng/mL; Activity (Rattus norvegicus [5]): 3.73 °C; Selectivity ratio (CHO): > 500; bioavailability [17]: 97%; Selectivity ratio (JAR): > 500; clearance [18]: 24 mL/min/kg
9 | CCn1c(=O)n([C@@H](c2ccccc2)[C@H](O)CNC)c2c(F)cccc21 | -5 | 13.8 | – | 29 | 11.4 | –
10 | CCn1c(=O)n([C@@H](c2cccc(F)c2)[C@H](O)CNC)c2ccccc21 | 15 | 7.4 | > 10 | -2 | 6.4 | Time (Rattus norvegicus [1]): 5 h; Activity (Rattus norvegicus [2]): 2.03 °C; Selectivity ratio (Homo sapiens): > 900; Activity (Rattus norvegicus [19]): Active; Activity (Rattus norvegicus [20]): Dose-dependent effect; Activity (Rattus norvegicus [21]): Active; Activity (Rattus norvegicus [5]): 2.62 °C; Selectivity ratio (CHO): > 500; Selectivity ratio (JAR): > 500; Activity (Rattus norvegicus [22]): Active
11 | CCCn1c(=O)n([C@@H](c2ccccc2)[C@H](O)CNC)c2cc(F)ccc21 | 44 | 39.4 | 8.32 | 16 | – | –
12 | CNCC[C@@H](Oc1ccccc1C)c1ccccc1 | – | – | – | – | – | IC5 [8]: 48 nM
13 | CNC[C@@H](O)[C@H](c1ccccc1)n1ccc2ccccc21 | – | – | 0.358 | – | – | IC5 [8]: 358 nM
14 | CNC[C@@H](O)[C@H](c1ccccc1)n1c(=O)n(C(C)C)c2ccccc21 | 19 | 13.4 | – | 19 | 10.8 | –
15 | CNC[C@@H](O)[C@H](c1ccccc1)n1c(=O)n(C)c2ccccc21 | 15 | 257 | – | 14 | – | –
16 | CCn1c(=O)n([C@@H](c2cccc(F)c2)[C@H](O)CNC)c2c(F)cccc21 | 8 | 10.4 | > 10 | 11 | 4.1 | Selectivity ratio (Homo sapiens): > 900; Selectivity ratio (CHO): > 500; Selectivity ratio (JAR): > 500
17 | CNC[C@@H](O)[C@H](c1ccccc1)n1c(=O)n(C2CCCC2)c2ccccc21 | 46 | 66.7 | 2.37 | 20 | – | –
18 | CNC[C@@H](O)[C@H](c1ccccc1)n1c(=O)n(C(C)(C)C)c2ccccc21 | 1 | 56 | – | – | – | inhibition [9]: 3%
19 | CCn1c(=O)n([C@@H](c2ccccc2)[C@H](O)CNC)c2ccccc21 | 4 | 17.5 | – | – | 16.8 | Time (Rattus norvegicus [1]): 3.5 h; Activity (Rattus norvegicus [2]): 1.57 °C; half-life [11]: 3.4 h; Tmax [12]: 1.1 h; AUC(0-inf) [13]: 1840 ng·h/mL; half-life [14]: 3.6 h; AUC(0-inf) [15]: 1640 ng·h/mL; Cmax [16]: 306 ng/mL; Activity (Rattus norvegicus [5]): 1.82 °C; bioavailability [17]: 56%; clearance [18]: 54 mL/min/kg
